# Results from patent US8802597B2, “Herbicidal pyrimidines” (E I du Pont de Nemours and Company, priority 2003, dated 2014).
# What was measured:
# Assay in all cases: Test G pre/postemergence
# Type in all cases: in vivo
# [1] = system: Italian ryegrass (Lolium multiflorum)
# Procedure, shortened: (§1)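 Pre- and postemergence greenhouse test; compound in non-phytotoxic solvent/surfactant mix. Post timing: 2–18 cm plants, 1- to 4-leaf. Visual rating vs controls at 12–21 d, 0 (no effect) to 100 (complete control).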
# [2] = system: pitted morningglory (Ipomoea lacunosa)
# Procedure, shortened: as §1
# [3] = system: dallisgrass (Paspalum dilatatum)
# Procedure, shortened: as §1
# [4] = system: common chickweed (Stellaria media)
# Procedure, shortened: as §1
# [5] = system: johnsongrass (Sorghum halepense)
# Procedure, shortened: as §1
# [6] = system: black mustard (Brassica nigra)
# Procedure, shortened: as §1
# [7] = system: annual bluegrass (Poa annua)
# Procedure, shortened: as §1
# [8] = system: itchgrass (Rottboellia cochinchinensis)
# Procedure, shortened: as §1
# [9] = system: green foxtail (Setaria viridis)
# Procedure, shortened: as §1
# [10] = system: common mallow (Malva sylvestris)
# Procedure, shortened: as §1
# [11] = system: quackgrass (Elytrigia repens)
# Procedure, shortened: as §1
# [12] = system: bermudagrass (Cynodon dactylon)
# Procedure, shortened: as §1
# [13] = system: southern sandbur (Cenchrus echinatus)
# Procedure, shortened: as §1
# [14] = system: Surinam grass (Brachiaria decumbens)
# Procedure, shortened: as §1
# [15] = Preemergence, 62 g ai/ha, scale 0-100
# [16] = Preemergence, 125 g ai/ha, scale 0-100
# [17] = Preemergence, 250 g ai/ha, scale 0-100
# [18] = Preemergence, 500 g ai/ha, scale 0 to 100
# [19] = Postemergence, 250 g ai/ha, scale 0 to 100
# [20] = Postemergence, 16 g ai/ha, scale 0 to 100
# [21] = Postemergence, 31 g ai/ha, scale 0 to 100
# [22] = Postemergence, 62 g ai/ha, scale 0 to 100
# [23] = Postemergence, 125 g ai/ha, scale 0 to 100
# [24] = Preemergence, 16 g ai/ha, scale 0-100
# [25] = Preemergence, 31 g ai/ha, scale 0-100
compound,measurement,setting,value
"COC(=O)c1nc(C2CC2)nc(N)c1Cl [Compound 9, methyl 6-amino-5-chloro-2-cyclopropyl-4-pyrimidinecarboxylate]","Plant response rating, Ryegrass, Italian",[1]; [15],20
same,"Plant response rating, Ryegrass, Italian",[1]; [16],50
same,"Plant response rating, Ryegrass, Italian",[1]; [17],75
same,"Plant response rating, Ryegrass, Italian",[1]; [18],80
same,"Plant response rating, Morningglory",[2]; [15],70
same,"Plant response rating, Morningglory",[2]; [16],100
same,"Plant response rating, Morningglory",[2]; [17],100
same,"Plant response rating, Morningglory",[2]; [18],100
same,"Plant response rating, Dallisgrass",[3]; [15],10
same,"Plant response rating, Dallisgrass",[3]; [16],70
same,"Plant response rating, Dallisgrass",[3]; [17],80
same,"Plant response rating, Dallisgrass",[3]; [18],100
same,"Plant response rating, Chickweed",[4]; [16],100
same,"Plant response rating, Chickweed",[4]; [17],100
same,"Plant response rating, Chickweed",[4]; [18],100
same,"Plant response rating, Johnsongrass",[5]; [15],40
same,"Plant response rating, Johnsongrass",[5]; [16],80
same,"Plant response rating, Johnsongrass",[5]; [17],95
same,"Plant response rating, Johnsongrass",[5]; [18],95
same,"Plant response rating, Black Mustard",[6]; [15],70
same,"Plant response rating, Black Mustard",[6]; [16],75
same,"Plant response rating, Black Mustard",[6]; [17],100
same,"Plant response rating, Black Mustard",[6]; [18],100
same,"Plant response rating, Bluegrass",[7]; [15],10
same,"Plant response rating, Bluegrass",[7]; [16],30
same,"Plant response rating, Bluegrass",[7]; [17],95
same,"Plant response rating, Bluegrass",[7]; [18],100
same,"Plant response rating, Itchgrass",[8]; [15],30
same,"Plant response rating, Itchgrass",[8]; [16],60
same,"Plant response rating, Itchgrass",[8]; [17],80
same,"Plant response rating, Itchgrass",[8]; [18],85
same,"Plant response rating, Foxtail, Green",[9]; [15],20
same,"Plant response rating, Foxtail, Green",[9]; [16],85
same,"Plant response rating, Foxtail, Green",[9]; [17],100
same,"Plant response rating, Foxtail, Green",[9]; [18],100
same,"Plant response rating, Mallow",[10]; [15],90
same,"Plant response rating, Mallow",[10]; [16],100
same,"Plant response rating, Mallow",[10]; [17],100
same,"Plant response rating, Mallow",[10]; [18],100
same,"Plant response rating, Quackgrass",[11]; [15],70
same,"Plant response rating, Quackgrass",[11]; [17],70
same,"Plant response rating, Quackgrass",[11]; [18],100
same,"Plant response rating, Bermudagrass",[12]; [15],10
same,"Plant response rating, Bermudagrass",[12]; [16],95
same,"Plant response rating, Bermudagrass",[12]; [17],95
same,"Plant response rating, Bermudagrass",[12]; [18],100
same,"Plant response rating, Sandbur",[13]; [16],80
same,"Plant response rating, Sandbur",[13]; [17],90
same,"Plant response rating, Sandbur",[13]; [18],95
same,"Plant response rating, Surinam Grass",[14]; [15],40
same,"Plant response rating, Surinam Grass",[14]; [16],70
same,"Plant response rating, Surinam Grass",[14]; [17],80
same,"Plant response rating, Surinam Grass",[14]; [18],90
"Nc1nc(C2CC2)nc(C(=O)[O-])c1Cl.[Na+] [Compound 77, 6-amino-5-chloro-2-cyclopropyl-4-pyrimidinecarboxylic acid monosodium salt]","Plant response rating, Ryegrass, Italian",[1]; [19],40
same,"Plant response rating, Ryegrass, Italian",[1]; [20],0
same,"Plant response rating, Ryegrass, Italian",[1]; [21],20
same,"Plant response rating, Ryegrass, Italian",[1]; [22],30
same,"Plant response rating, Ryegrass, Italian",[1]; [23],30
same,"Plant response rating, Ryegrass, Italian",[1]; [24],0
same,"Plant response rating, Ryegrass, Italian",[1]; [25],0
same,"Plant response rating, Ryegrass, Italian",[1]; [15],0
same,"Plant response rating, Ryegrass, Italian",[1]; [16],40
same,"Plant response rating, Ryegrass, Italian",[1]; [17],75
same,"Plant response rating, Morningglory",[2]; [19],100
same,"Plant response rating, Morningglory",[2]; [20],50
same,"Plant response rating, Morningglory",[2]; [21],60
same,"Plant response rating, Morningglory",[2]; [22],90
same,"Plant response rating, Morningglory",[2]; [23],100
same,"Plant response rating, Morningglory",[2]; [24],70
same,"Plant response rating, Morningglory",[2]; [25],90
same,"Plant response rating, Morningglory",[2]; [15],100
same,"Plant response rating, Morningglory",[2]; [16],100
same,"Plant response rating, Morningglory",[2]; [17],100
same,"Plant response rating, Dallisgrass",[3]; [19],50
same,"Plant response rating, Dallisgrass",[3]; [20],0
same,"Plant response rating, Dallisgrass",[3]; [21],0
same,"Plant response rating, Dallisgrass",[3]; [22],15
same,"Plant response rating, Dallisgrass",[3]; [23],35
same,"Plant response rating, Dallisgrass",[3]; [24],0
same,"Plant response rating, Dallisgrass",[3]; [25],5
same,"Plant response rating, Dallisgrass",[3]; [15],15
same,"Plant response rating, Dallisgrass",[3]; [16],30
same,"Plant response rating, Dallisgrass",[3]; [17],85
same,"Plant response rating, Chickweed",[4]; [19],100
same,"Plant response rating, Chickweed",[4]; [20],10
same,"Plant response rating, Chickweed",[4]; [21],80
same,"Plant response rating, Chickweed",[4]; [22],90
same,"Plant response rating, Chickweed",[4]; [23],90
same,"Plant response rating, Chickweed",[4]; [25],70
same,"Plant response rating, Chickweed",[4]; [15],90
same,"Plant response rating, Chickweed",[4]; [16],100
same,"Plant response rating, Chickweed",[4]; [17],100
same,"Plant response rating, Johnsongrass",[5]; [19],85
same,"Plant response rating, Johnsongrass",[5]; [20],20
same,"Plant response rating, Johnsongrass",[5]; [21],65
same,"Plant response rating, Johnsongrass",[5]; [22],70
same,"Plant response rating, Johnsongrass",[5]; [23],85
same,"Plant response rating, Johnsongrass",[5]; [24],10
same,"Plant response rating, Johnsongrass",[5]; [25],65
same,"Plant response rating, Johnsongrass",[5]; [15],75
same,"Plant response rating, Johnsongrass",[5]; [16],85
same,"Plant response rating, Johnsongrass",[5]; [17],95
same,"Plant response rating, Black Mustard",[6]; [19],60
same,"Plant response rating, Black Mustard",[6]; [20],25
same,"Plant response rating, Black Mustard",[6]; [21],40
same,"Plant response rating, Black Mustard",[6]; [22],50
same,"Plant response rating, Black Mustard",[6]; [23],60
same,"Plant response rating, Black Mustard",[6]; [24],60
same,"Plant response rating, Black Mustard",[6]; [25],60
same,"Plant response rating, Black Mustard",[6]; [15],85
same,"Plant response rating, Black Mustard",[6]; [16],90
same,"Plant response rating, Black Mustard",[6]; [17],95
same,"Plant response rating, Bluegrass",[7]; [19],40
same,"Plant response rating, Bluegrass",[7]; [20],0
same,"Plant response rating, Bluegrass",[7]; [21],0
same,"Plant response rating, Bluegrass",[7]; [22],0
same,"Plant response rating, Bluegrass",[7]; [23],40
same,"Plant response rating, Bluegrass",[7]; [24],0
same,"Plant response rating, Bluegrass",[7]; [25],0
same,"Plant response rating, Bluegrass",[7]; [15],5
same,"Plant response rating, Bluegrass",[7]; [16],20
same,"Plant response rating, Bluegrass",[7]; [17],40
same,"Plant response rating, Itchgrass",[8]; [19],80
same,"Plant response rating, Itchgrass",[8]; [20],0
same,"Plant response rating, Itchgrass",[8]; [21],35
same,"Plant response rating, Itchgrass",[8]; [22],65
same,"Plant response rating, Itchgrass",[8]; [23],70
same,"Plant response rating, Itchgrass",[8]; [24],0
same,"Plant response rating, Itchgrass",[8]; [25],10
same,"Plant response rating, Itchgrass",[8]; [15],45
same,"Plant response rating, Itchgrass",[8]; [16],85
same,"Plant response rating, Itchgrass",[8]; [17],90
same,"Plant response rating, Foxtail, Green",[9]; [19],40
same,"Plant response rating, Foxtail, Green",[9]; [20],0
same,"Plant response rating, Foxtail, Green",[9]; [21],0
same,"Plant response rating, Foxtail, Green",[9]; [22],35
same,"Plant response rating, Foxtail, Green",[9]; [23],40
same,"Plant response rating, Foxtail, Green",[9]; [24],0
same,"Plant response rating, Foxtail, Green",[9]; [25],5
same,"Plant response rating, Foxtail, Green",[9]; [15],65
same,"Plant response rating, Foxtail, Green",[9]; [16],85
same,"Plant response rating, Foxtail, Green",[9]; [17],90
same,"Plant response rating, Mallow",[10]; [19],95
same,"Plant response rating, Mallow",[10]; [20],65
same,"Plant response rating, Mallow",[10]; [21],75
same,"Plant response rating, Mallow",[10]; [22],80
same,"Plant response rating, Mallow",[10]; [23],85
same,"Plant response rating, Mallow",[10]; [24],30
same,"Plant response rating, Mallow",[10]; [25],40
same,"Plant response rating, Mallow",[10]; [15],50
same,"Plant response rating, Mallow",[10]; [16],80
same,"Plant response rating, Mallow",[10]; [17],80
same,"Plant response rating, Quackgrass",[11]; [19],60
same,"Plant response rating, Quackgrass",[11]; [20],0
same,"Plant response rating, Quackgrass",[11]; [21],10
same,"Plant response rating, Quackgrass",[11]; [22],40
same,"Plant response rating, Quackgrass",[11]; [23],60
same,"Plant response rating, Quackgrass",[11]; [24],0
same,"Plant response rating, Quackgrass",[11]; [25],0
same,"Plant response rating, Quackgrass",[11]; [15],10
same,"Plant response rating, Quackgrass",[11]; [16],50
same,"Plant response rating, Quackgrass",[11]; [17],80
same,"Plant response rating, Bermudagrass",[12]; [19],50
same,"Plant response rating, Bermudagrass",[12]; [20],10
same,"Plant response rating, Bermudagrass",[12]; [21],20
same,"Plant response rating, Bermudagrass",[12]; [22],35
same,"Plant response rating, Bermudagrass",[12]; [23],35
same,"Plant response rating, Bermudagrass",[12]; [24],0
same,"Plant response rating, Bermudagrass",[12]; [25],0
same,"Plant response rating, Bermudagrass",[12]; [15],0
same,"Plant response rating, Bermudagrass",[12]; [16],10
same,"Plant response rating, Bermudagrass",[12]; [17],60
same,"Plant response rating, Sandbur",[13]; [19],40
same,"Plant response rating, Sandbur",[13]; [20],0
same,"Plant response rating, Sandbur",[13]; [21],0
same,"Plant response rating, Sandbur",[13]; [22],10
same,"Plant response rating, Sandbur",[13]; [23],35
same,"Plant response rating, Sandbur",[13]; [24],0
same,"Plant response rating, Sandbur",[13]; [25],20
same,"Plant response rating, Sandbur",[13]; [15],100
same,"Plant response rating, Sandbur",[13]; [16],100
same,"Plant response rating, Sandbur",[13]; [17],100
same,"Plant response rating, Surinam Grass",[14]; [19],70
same,"Plant response rating, Surinam Grass",[14]; [20],0
same,"Plant response rating, Surinam Grass",[14]; [21],10
same,"Plant response rating, Surinam Grass",[14]; [22],25
same,"Plant response rating, Surinam Grass",[14]; [23],65
same,"Plant response rating, Surinam Grass",[14]; [24],0
same,"Plant response rating, Surinam Grass",[14]; [25],5
same,"Plant response rating, Surinam Grass",[14]; [15],70
same,"Plant response rating, Surinam Grass",[14]; [16],90
same,"Plant response rating, Surinam Grass",[14]; [17],100
